Test results reported in ChEMBL document CHEMBL1145498, “A systematic interaction map of validated kinase inhibitors with Ser/Thr kinases” (Proc Natl Acad Sci U S A, 2007).

Legend:
[1] = target: 5'-AMP-activated protein kinase catalytic subunit alpha-2 (Homo sapiens) (UniProt P54646)
[2] = target: Serine/threonine-protein kinase 26 (Homo sapiens) (UniProt Q9P289)
[3] = target: T1, Serine/threonine-protein kinase 17A (Homo sapiens) (UniProt Q9UEE5)
T1 sequence (whole entry): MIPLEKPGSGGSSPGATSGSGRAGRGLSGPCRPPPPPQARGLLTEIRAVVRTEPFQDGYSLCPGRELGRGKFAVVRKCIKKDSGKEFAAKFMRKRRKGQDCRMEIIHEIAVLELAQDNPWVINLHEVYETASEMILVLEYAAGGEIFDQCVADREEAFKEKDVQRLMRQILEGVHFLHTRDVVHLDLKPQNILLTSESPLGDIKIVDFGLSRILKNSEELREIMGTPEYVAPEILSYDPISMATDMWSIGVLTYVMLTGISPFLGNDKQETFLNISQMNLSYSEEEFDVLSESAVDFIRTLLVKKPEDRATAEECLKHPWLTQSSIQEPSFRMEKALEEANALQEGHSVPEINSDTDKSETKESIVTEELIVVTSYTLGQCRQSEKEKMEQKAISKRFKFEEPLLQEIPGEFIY

[4] = target: Mitogen-activated protein kinase 3 (Homo sapiens, UniProt P27361)
[5] = target: T2, Mitogen-activated protein kinase kinase kinase 5 (Homo sapiens) (UniProt Q99683)
T2 sequence (whole entry): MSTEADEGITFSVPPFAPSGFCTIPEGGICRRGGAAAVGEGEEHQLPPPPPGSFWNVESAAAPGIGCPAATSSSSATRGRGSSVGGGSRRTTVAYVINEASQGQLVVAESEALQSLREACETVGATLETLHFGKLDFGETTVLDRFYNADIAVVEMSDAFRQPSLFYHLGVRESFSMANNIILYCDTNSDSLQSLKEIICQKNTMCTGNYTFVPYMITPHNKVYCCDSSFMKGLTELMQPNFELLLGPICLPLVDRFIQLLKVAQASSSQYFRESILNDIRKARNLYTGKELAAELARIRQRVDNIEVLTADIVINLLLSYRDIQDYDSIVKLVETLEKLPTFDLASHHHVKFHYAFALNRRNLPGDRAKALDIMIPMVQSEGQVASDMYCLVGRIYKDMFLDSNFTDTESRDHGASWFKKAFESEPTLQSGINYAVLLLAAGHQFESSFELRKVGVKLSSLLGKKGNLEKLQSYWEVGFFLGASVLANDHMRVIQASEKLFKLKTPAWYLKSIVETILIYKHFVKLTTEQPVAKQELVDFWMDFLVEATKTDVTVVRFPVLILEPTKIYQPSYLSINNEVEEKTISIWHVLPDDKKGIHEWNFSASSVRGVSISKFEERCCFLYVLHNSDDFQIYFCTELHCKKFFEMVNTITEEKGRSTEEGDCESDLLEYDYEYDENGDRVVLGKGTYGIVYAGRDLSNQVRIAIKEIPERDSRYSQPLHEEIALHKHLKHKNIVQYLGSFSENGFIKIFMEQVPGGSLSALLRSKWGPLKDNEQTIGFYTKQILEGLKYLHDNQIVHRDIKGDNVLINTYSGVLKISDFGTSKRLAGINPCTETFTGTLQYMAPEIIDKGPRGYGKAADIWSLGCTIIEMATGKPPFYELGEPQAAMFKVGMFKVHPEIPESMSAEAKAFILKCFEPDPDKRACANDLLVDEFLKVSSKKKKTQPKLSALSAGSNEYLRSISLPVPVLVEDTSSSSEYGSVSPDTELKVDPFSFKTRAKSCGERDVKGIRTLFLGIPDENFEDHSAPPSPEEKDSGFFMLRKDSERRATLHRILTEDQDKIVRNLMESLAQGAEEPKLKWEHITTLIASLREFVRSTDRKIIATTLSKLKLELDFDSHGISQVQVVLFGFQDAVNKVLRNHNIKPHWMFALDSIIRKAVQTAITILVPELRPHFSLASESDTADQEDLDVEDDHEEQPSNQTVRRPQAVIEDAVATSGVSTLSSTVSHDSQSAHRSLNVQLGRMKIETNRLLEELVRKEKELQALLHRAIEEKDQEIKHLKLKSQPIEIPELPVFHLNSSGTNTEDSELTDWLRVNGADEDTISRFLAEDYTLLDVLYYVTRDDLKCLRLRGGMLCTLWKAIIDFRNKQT

[6] = target: Cyclin-dependent kinase 2 (Homo sapiens, UniProt P24941)
[7] = target: Death-associated protein kinase 3 (Homo sapiens) (UniProt O43293)
[8] = target: T3, Serine/threonine-protein kinase VRK1 (Homo sapiens) (UniProt Q99986)
T3 sequence (whole entry): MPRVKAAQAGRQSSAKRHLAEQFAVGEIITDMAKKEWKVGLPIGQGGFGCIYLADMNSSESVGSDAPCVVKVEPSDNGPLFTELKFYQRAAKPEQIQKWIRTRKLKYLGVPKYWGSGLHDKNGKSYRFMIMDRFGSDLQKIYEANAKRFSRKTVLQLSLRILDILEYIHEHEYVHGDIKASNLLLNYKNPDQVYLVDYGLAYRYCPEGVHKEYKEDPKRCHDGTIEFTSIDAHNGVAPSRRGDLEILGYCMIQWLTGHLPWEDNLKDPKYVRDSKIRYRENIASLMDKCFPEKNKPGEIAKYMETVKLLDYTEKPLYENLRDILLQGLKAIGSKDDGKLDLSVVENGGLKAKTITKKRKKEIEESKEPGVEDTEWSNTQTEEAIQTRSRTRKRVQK

Chain of Mitogen-activated protein kinase 3 (P27361 whole entry): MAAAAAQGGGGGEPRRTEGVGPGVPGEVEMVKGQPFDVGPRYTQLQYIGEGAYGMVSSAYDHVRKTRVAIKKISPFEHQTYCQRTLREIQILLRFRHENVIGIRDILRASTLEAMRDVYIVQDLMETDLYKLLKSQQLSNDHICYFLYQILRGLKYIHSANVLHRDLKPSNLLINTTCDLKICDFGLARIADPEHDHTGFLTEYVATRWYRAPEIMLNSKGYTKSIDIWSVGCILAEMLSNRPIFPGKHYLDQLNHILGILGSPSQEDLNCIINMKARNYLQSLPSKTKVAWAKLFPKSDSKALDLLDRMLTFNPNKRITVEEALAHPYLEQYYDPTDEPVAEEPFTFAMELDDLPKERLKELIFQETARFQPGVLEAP
Chain of 5'-AMP-activated protein kinase catalytic subunit alpha-2 (Homo sapiens) (P54646 whole entry, looked up): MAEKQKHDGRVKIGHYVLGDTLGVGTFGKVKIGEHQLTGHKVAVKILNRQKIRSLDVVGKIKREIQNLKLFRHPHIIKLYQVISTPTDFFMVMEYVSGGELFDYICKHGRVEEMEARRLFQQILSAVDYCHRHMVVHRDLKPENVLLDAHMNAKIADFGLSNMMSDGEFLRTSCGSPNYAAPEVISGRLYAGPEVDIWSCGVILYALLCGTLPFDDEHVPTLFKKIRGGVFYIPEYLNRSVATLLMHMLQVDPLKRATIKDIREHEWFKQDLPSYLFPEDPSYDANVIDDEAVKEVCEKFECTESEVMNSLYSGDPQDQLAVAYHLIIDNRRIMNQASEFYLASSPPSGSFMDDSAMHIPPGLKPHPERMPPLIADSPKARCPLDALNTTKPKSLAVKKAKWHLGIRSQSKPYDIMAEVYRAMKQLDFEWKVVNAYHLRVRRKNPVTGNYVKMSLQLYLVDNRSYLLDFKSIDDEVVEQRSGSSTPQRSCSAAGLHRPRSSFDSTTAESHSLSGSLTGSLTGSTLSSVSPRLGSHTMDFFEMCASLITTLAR
Chain of Serine/threonine-protein kinase 26 (Homo sapiens) (Q9P289 2-416 limits assumed): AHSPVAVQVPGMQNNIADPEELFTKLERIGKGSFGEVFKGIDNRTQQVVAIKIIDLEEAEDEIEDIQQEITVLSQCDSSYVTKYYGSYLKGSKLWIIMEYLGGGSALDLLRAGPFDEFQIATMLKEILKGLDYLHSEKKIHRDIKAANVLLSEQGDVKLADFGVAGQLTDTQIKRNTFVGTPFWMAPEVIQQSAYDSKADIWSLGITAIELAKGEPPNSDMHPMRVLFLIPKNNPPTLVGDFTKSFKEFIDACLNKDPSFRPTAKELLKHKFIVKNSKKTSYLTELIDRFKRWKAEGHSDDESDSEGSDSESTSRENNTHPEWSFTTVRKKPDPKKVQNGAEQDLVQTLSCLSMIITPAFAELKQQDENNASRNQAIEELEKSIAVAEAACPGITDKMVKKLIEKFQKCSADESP
Chain of Death-associated protein kinase 3 (Homo sapiens) (O43293 whole entry, looked up): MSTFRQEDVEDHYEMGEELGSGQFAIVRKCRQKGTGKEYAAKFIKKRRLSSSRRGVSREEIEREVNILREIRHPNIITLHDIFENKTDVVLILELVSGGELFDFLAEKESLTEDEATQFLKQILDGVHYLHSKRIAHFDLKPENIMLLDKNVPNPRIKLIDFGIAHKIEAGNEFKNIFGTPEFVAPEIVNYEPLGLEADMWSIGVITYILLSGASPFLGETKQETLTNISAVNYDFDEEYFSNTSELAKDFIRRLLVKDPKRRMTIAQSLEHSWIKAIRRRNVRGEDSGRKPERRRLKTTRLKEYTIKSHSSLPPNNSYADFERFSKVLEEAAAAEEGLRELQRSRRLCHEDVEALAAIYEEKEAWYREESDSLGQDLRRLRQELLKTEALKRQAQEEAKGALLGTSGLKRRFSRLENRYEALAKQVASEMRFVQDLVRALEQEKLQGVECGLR

| SMILES | ΔTm [1] | ΔTm [2] | ΔTm [3] | ΔTm [4] | ΔTm [5] | ΔTm [6] | ΔTm [7] | ΔTm [8] |
| --- | --- | --- | --- | --- | --- | --- | --- | --- |
| COc1cc(/C=C/C(=O)CC(=O)/C=C/c2ccc(O)c(OC)c2)ccc1O [CURCUMIN] | -0.1 °C | 1.7 °C | 7.4 °C | 0.8 °C | 3.1 °C | 1.9 °C | 1.8 °C | 1 °C |
| Nc1n[nH]c2nc3ccccc3nc12 [QUINOXALINE1] | -0.1 °C | 0.7 °C | 3.5 °C | 0.3 °C | 2.6 °C | 1.3 °C | 1 °C | 0.2 °C |
| CCCNC(=O)Nc1ccc(Oc2ncnc3cc(OC)c(OC)cc23)cc1Cl [KRN-633] | 2.1 °C | 1.2 °C | 2.7 °C | 0.5 °C | 0.3 °C | -0.4 °C | 1.3 °C | 0.3 °C |
| CN(C)S(=O)(=O)c1ccc2c(c1)/C(=C/c1cc3c([nH]1)CCCC3)C(=O)N2 | 6.7 °C | 6.3 °C | 3.3 °C | 0.8 °C | 1.2 °C | 2.3 °C | 0.3 °C | 0.3 °C |
| CC(C)n1cnc2/c(=N/c3cccc(Cl)c3)nc(NCCO)[nH]c21 | 0.3 °C | 2.1 °C | 1.4 °C | 0.2 °C | 0.4 °C | 1.6 °C | 2.2 °C | 0.5 °C |
| Cc1nc2sccn2c(=O)c1CCN1CCC(=C(c2ccccc2)c2ccc(F)cc2)CC1 | -0.1 °C | -0.1 °C | 8.8 °C | 0 °C | 5.8 °C | 1.2 °C | 4.2 °C | 0.3 °C |
| CCOC(=O)c1cnc2oc3ccc(O)cc3c2c1-c1ccccc1 | 0 °C | -0.2 °C | 2 °C | -0.1 °C | 2.1 °C | 1 °C | 0.8 °C | 0.1 °C |
| CC(C)(C)n1nc(-c2ccc(Cl)cc2)c2c(N)ncnc21 | 0.7 °C | -0.5 °C | 0.1 °C | 0 °C | 0.3 °C | 0.7 °C | -1.1 °C | 0 °C |
| COc1ccc(S(=O)(=O)N(CCO)c2ccccc2CN(C)C/C=C/c2ccc(Cl)cc2)cc1 | -1 °C | 0.1 °C | 0.1 °C | 0.1 °C | -0.1 °C | 0 °C | 0.2 °C | 0 °C |
| O=c1c2ccccc2[nH]c(=S)n1CCN1CCC(=C(c2ccc(F)cc2)c2ccc(F)cc2)CC1 [DIACYLGLYCEROL KINASE INHIBITOR II] | -3.3 °C | 2.4 °C | 0.5 °C | 0.2 °C | -0.7 °C | 0.9 °C | 1.6 °C | -0.2 °C |
| N#CC(C#N)=Cc1ccc(O)c(O)c1 [TYRPHOSTIN 23] | -0.1 °C | 0.3 °C | 0.9 °C | 0.3 °C | 0.1 °C | 1.1 °C | 0.7 °C | 0.1 °C |
| O=C1Cc2c([nH]c3ccc(Br)cc23)-c2ccccc2N1 [KENPAULLONE] | 1.1 °C | 1.4 °C | 5.9 °C | 0.5 °C | 0.8 °C | 3.6 °C | 0.4 °C | -0.1 °C |
| C[S+]([O-])c1ccc(CSc2nc(-c3ccc(F)cc3)c(-c3ccncc3)[nH]2)cc1 (configuration not stated) | -0.3 °C | 0.4 °C | 0 °C | 0.3 °C | 0.9 °C | 0.5 °C | 0.4 °C | -0.1 °C |
| CCN(CC)CCNC(=O)c1c(C)[nH]c(/C=C2\C(=O)Nc3ccc(Cl)cc32)c1C [SU-11652] | 7 °C | 3.8 °C | 11 °C | 0 °C | 6.3 °C | 0.9 °C | 5.9 °C | 0.6 °C |
